Where two headings read alike, the source gives them in different places.
Experiments:
PD-1/PD-L1 complex = PD-1/PD-L1 complex (Homo sapiens, UniProt Q9NZQ7); experiment: HTRF assay of PD-1/PD-L1 complex dissociation (CisBio); conditions: for remaining activity at 0.005 µM: 2 h;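 as to all read-outs here: human PD-L1 at 5 nM with human PD-1 at 50 nM, TR-FRET signal read after 2 h at room temperature, background removed via negative control and scaled to positive control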
[1] = Cytotoxicity assay toward Jurkat-ECs; type: cell-based; conditions: human, Jurkat-EC cells, SI csv
Protocol: The cytotoxicity of compounds was verified toward Jurkat-ECs since these cells provide the readout in the ICB assay and present a much higher degree of susceptibility to the compounds’ toxicity than CHO-K1 cells (not shown). Jurkat-ECs were seeded on 96-well transparent plates in the presence of increasing concentrations of the compounds with DMSO-treated cells as a control. The concentration of DMSO was kept constant (0.1%). After 48 h of incubation, a tetrazolium reagent, Biolog redox dye MIX MB (Biolog), was added according to the manufacturer’s protocol, and the culture plates were incubated for an additional 2 h (37 °C, 5% CO2). The absorbance was measured using a Spark microplate reader (Tecan) at 590 nm with 750 nm as a reference. The data are presented as Jurkat-EC survival relative to DMSO-treated control cells. Data points represent mean ± SD values from three independent experiments. Half-maximal effective concentrations (EC50 values) were calculated from the dose–response curve using OriginPro 2020 (OriginLab) software.

[2] = system: primary CD4+ and CD8+ T cells (PBMCs); experiment: T-cell activation (TCA) assay, PBMCs with CHO/TCRAct/PD-L1 cells, flow cytometry; type: cell-based, human; conditions: 48 h; compounds 0.1, 0.5, 2.5 μM; mAbs 5 μg/mL
Protocol: A standard ICB assay relies on artificial Jurkat-ECs, which are surrogates of T-cells. To verify the potential of the compounds to reactivate the PD-L1-blocked primary T cells, a modified assay termed T-cell activation (TCA) was carried out.[32] In this assay, human primary peripheral blood mononuclear cells (PBMCs) are allowed to make contact with CHO/TCRAct/PD-L1 cells alone or in the presence of PD-1/PD-L1 blockers, and the activation of CD4^+ and CD8^+ T cell is monitored by flow cytometry.
Anticoagulant citrate dextrose-A-treated blood from healthy donors was purchased from the Regional Center of Blood Donation and Blood Therapy in Krakow, Poland. PBMCs were isolated from whole blood by density gradient centrifugation using Pancoll human separating solution (PAN-Biotech GmbH, Aidenbach, Germany). The separated cells were washed and resuspended in RPMI 1640 medium (Biowest) containing 10% FBS (Biowest). PBMCs were added at an amount of 3 × 10^5 to CHO, CHO/TCRAct, or CHO/TCRAct/PD-L1 cells preseeded on 24-well plates in the presence of either anti-PD-L1 mAbs (at the final concentration 5 μg/mL): durvalumab (Selleckchem), atezolizumab (Selleckchem), or avelumab (MedChemExpress) or tested compounds at the concentrations 0.1, 0.5, and 2.5 μM. Untreated cells were used as controls for antibody treatment, while DMSO-treated cells [0.1% (v/v)] were used as controls for compound treatment. The cells were incubated for 48 h (37 °C, 5% CO2) and then detached from the plates with TrypLe Select Enzyme (Thermo Fisher). PBMCs were stained for 20 min at room temperature with the antibodies: anti-CD4-FITC, anti-CD8-BV510, anti-CD69-APC, anti-CD25-PE, anti-HLA-DR-PerCP, and anti-PD1-PECy7 (Becton Dickinson Biosciences, BD). Following two washing steps, the cells were analyzed with a FACSCanto II cytometer. Data analysis was carried out with FlowJo software, followed by statistical significance calculations done with Origin Pro 2020 software (OriginLab). Statistical significance was analyzed with one-way analysis of variance (ANOVA), followed by the Fisher’s posthoc test: *p < 0.05, **p < 0.01, […].

murine PD-L1 = murine PD-L1 (Mus musculus, UniProt Q9EP73); experiment: 1H NMR titration with murine PD-L1; type: binding; conditions: over-titration 1:10 protein:compound
Protocol: We additionally compared the spectra of the interaction of 8j with hPD-L1 (Figure 2B) and murine PD-L1 (mPD-L1) (Figure 2C). Only for human PD-L1, changes in NMR were observed upon addition of 8j to the protein.
NMR spectra were recorded in PBS pH 7.4 containing 10% (v/v) of D2O added to the samples to provide the lock signal. Water suppression was carried out using the WATERGATE sequence. All the spectra were recorded at 300 K using a Bruker AVANCE 600 MHz spectrometer with the cryo-platform. The spectra were recorded at the ligand/protein ratio of 1:1, unless stated otherwise. The samples were prepared by adding small amounts of a 50 mM ligand stock solution in DMSO to the protein solution (0.20 mL) of PD-L1 fragment at a concentration of 0.2 mM. Spectra were visualized using TopSpin 4.0.2.

[3] = system: PBMCs cocultured with CHO/TCRAct/PD-L1 cells; experiment: Cytokine accumulation in culture media of the TCA assay (CBA Th1/Th2/Th17 kit); type: cell-based, human; conditions: TCA assay supernatants, four donors
Protocol: In addition to the expression of surface markers, the accumulation of immune-related cytokines in the culture media collected in the TCA assay was monitored with the cytometric bead array (CBA) human Th1/Th2/Th17 kit. […] Also, the levels of IL-6, IFN-γ, and IL-2 increased, but these increases were not statistically significant.
The concentration of the cytokines (IL-2, IL-4, IL-6, IL-10, IL-17A, IFN-γ, and TNFα) in supernatants was determined using the CBA Human Th1/Th2/Th17 kit (BD Biosciences), with data acquisition using the FACSCanto flow cytometer. The CBA beads were discriminated in FL-4 and FL-5 channels, while the concentration of specified cytokines was determined by the intensity of FL-2 fluorescence, using the respective standard reference curve and FCAP Array software (BD Biosciences). IL-4 was below the detection level and is not presented in the manuscript. Statistical significance was analyzed with one-way ANOVA using the Origin Pro 2020 software, followed by the Fisher’s posthoc test: *p < 0.05, **p < 0.01, […].

PD-1/PD-L1 complex, sequence (Q9NZQ7 19-238 limits assumed, one chain of several): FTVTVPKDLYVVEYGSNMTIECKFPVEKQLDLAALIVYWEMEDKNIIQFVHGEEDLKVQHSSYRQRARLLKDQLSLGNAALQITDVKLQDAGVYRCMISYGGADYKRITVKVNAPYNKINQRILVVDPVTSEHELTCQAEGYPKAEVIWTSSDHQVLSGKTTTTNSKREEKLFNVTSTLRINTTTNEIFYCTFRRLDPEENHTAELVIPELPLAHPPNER
murine PD-L1, sequence (Q9EP73 18-134 limits assumed): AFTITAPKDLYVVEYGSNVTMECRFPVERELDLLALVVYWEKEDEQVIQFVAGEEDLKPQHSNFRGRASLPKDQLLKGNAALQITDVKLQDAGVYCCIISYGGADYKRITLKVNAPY

remaining activity at 0.005 µM (PD-1/PD-L1 complex; read-out: % of undissociated complex at 5 nM): 0%
remaining activity at 0.005 µM (PD-1/PD-L1 complex; read-out: HTRF % of the undissociated complex at 5 nM): 0%
IC50 (PD-1/PD-L1 complex; HTRF, Table 4, <1.00 = limit of quantification reached): < 1 nM
interaction with mPD-L1 by 1H NMR (murine PD-L1): no interaction was observed
Compound: COc1cc(-c2cccc(-c3ccc4c(c3)OCCO4)c2Cl)ccc1CNC(CO)(CO)CO [8j, 2-(((3′-(Benzo-1,4-dioxan-6-yl)-2′-chloro-3-methoxy-[1,1′-biphenyl]-4-yl)methyl)amino)-2-(hydroxymethyl)propane-1,3-diol]
EC50 at 48 h [1]: 2880 ± 390 nM
numbers of PD-1-positive T cells [2]: significant increase
numbers of activated, CD25-positive and HLA-DR-positive T-cells [2]: increased
accumulation of immune-related cytokines in culture media [3]: significant increases observed for IL-6, TNF-α, IFN-γ, IL-10, and IL-2
